Test results from ChEMBL document CHEMBL1212933, “Alcoholysis of naturally occurring imides: misleading interpretation of antifungal activities” (J Nat Prod, 2010).
In brackets after ≈: the same amount, converted by molar mass.

Columns and labels:
Cladosporium herbarum = experiment: Antifungal activity against Cladosporium herbarum; format: functional, organism-based
Penicillium griseofulvum = experiment: Antifungal activity against Penicillium griseofulvum; format: functional, organism-based

CS/C=C/C(=O)N(C)C(=O)Cc1ccccc1 [PENIMIDE A]
EC50 (Cladosporium herbarum): 0.9 µg/mL (≈ 3.61 µM) | EC50 (Penicillium griseofulvum): 3 µg/mL (≈ 12 µM)
